The results in this text go back to patent US8946439B2, “Amide compounds, compositions and uses thereof” (Evotec AG, priority 2008, dated 2015).

Molecules are shown by their SMILES. Where two headings read alike, the source gives them in different places.

Experiment [1] addresses T1, hP2X2/3H (Homo sapiens, UniProt P56373+Q9UBL9).
T1 construct: expressed in transfected cells; host or cells: e.g. HEK293 or 1321N1
T1 sequence (Q9UBL9 1-471): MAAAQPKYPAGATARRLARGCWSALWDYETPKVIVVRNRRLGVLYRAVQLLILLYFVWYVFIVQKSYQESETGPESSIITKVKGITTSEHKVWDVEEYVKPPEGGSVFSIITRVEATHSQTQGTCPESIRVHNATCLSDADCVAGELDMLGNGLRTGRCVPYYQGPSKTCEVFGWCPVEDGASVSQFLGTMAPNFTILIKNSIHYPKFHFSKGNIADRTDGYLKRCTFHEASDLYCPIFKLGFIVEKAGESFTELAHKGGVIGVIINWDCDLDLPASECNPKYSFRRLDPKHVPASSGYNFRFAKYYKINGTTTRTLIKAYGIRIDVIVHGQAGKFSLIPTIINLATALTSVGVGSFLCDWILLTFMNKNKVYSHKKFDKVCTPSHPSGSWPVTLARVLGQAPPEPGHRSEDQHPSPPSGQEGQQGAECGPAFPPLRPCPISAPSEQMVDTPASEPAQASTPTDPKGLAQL
T1 sequence (P56373 1-397): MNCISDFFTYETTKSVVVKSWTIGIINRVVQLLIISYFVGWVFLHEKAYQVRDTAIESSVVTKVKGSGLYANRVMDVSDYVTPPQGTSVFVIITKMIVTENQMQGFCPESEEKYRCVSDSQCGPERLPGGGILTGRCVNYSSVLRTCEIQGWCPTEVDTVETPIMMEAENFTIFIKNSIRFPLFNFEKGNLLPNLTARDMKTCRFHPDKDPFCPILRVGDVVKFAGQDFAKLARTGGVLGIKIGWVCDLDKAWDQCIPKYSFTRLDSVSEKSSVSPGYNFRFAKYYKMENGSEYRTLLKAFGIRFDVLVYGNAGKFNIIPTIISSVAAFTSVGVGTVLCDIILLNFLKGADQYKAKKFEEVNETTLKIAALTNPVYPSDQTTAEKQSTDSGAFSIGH
As to the kind of experiment: Calcium uptake assay (P2X antagonist assay), P2X2/3 heteromer. The class given is cell-based. The note with it: hP2X2/3H. Summed up: (§1)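 Stably or transiently transfected HEK293 or 1321N1 cells; the heteromer is made by adding P2X3 to a P2X2-stable line, with heteromer function isolated pharmacologically. The peak-minus-baseline FLIPR calcium signal gives % inhibition and a 4-parameter-logistic IC50.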

The target of experiment [2] is T2, hP2X3 (Homo sapiens, UniProt P56373).
T2 construct: expressed in transfected cells; host or cells: e.g. HEK293 or 1321N1
T2 sequence (P56373 1-397): T1 sequence (P56373 1-397)
Kind of experiment: Calcium uptake assay (P2X antagonist assay), P2X3 homomer. The class given is cell-based. Conditions: hP2X3. Summed up: as §1

[3] abbreviates: calcium uptake assay, read-out: IC50 hP2X2/3H (nM), Ca Influx.
Setting [4] is: calcium uptake assay, read-out: IC50 hP2X3 (nM), Ca Influx.
Where [5] appears, read: Ca influx (calcium uptake assay), read-out: IC50 hP2X2/3H.
[6] abbreviates: Ca influx (calcium uptake assay), read-out: IC50 hP2X3.

Consider `Cc1ccc(-c2cc(C(=O)N[C@H](C)c3ccc(C)nc3)cc(S(=O)(=O)CC(C)C)c2)cc1` [Compound 196], for which the IC50 in experiment [1] (setting [3]) is under 100 nM; in experiment [2] (setting [4]), 100 to 500 nM.

`Cc1ccc(-c2cc(C(=O)N[C@H](C)c3ccc(C)nc3)cc(S(=O)(=O)C(C)C)c2)cc1` [Compound 197]: the IC50 in experiment [1] (setting [3]) and in experiment [2] (setting [4]) was under 100 nM in each case.

As to `COCC(C)Oc1cc(C(=O)N[C@H](C)c2ccc(C)nc2)cc(-c2ccc(C)cc2)c1` (some centres unmarked) [Compound 299], the IC50 in experiment [1] (setting [5]) and in experiment [2] (setting [6]) was under 100 nM in each case.

Turning to `CCCS(=O)(=O)c1cc(C(=O)NCc2ccc(C)nc2)cc(-c2ccc(C)cc2)c1` [Compound 56], the IC50 in experiment [1] (setting [3]) and in experiment [2] (setting [4]) was under 100 nM in each case.

For the molecule `Cc1ccc(-c2cc(C(=O)NCc3ccc(C(F)(F)F)nc3)cc(S(C)(=O)=O)c2)cc1` [Compound 37, 4′-Methyl-5-(methylsulfonyl)-N-((6-(trifluoromethyl)pyridin-3-yl)methyl)biphenyl-3-carboxamide], the IC50 in experiment [1] (setting [3]) and in experiment [2] (setting [4]) was 100 to 500 nM throughout.

In the case of `Cc1ccc(-c2cc(C(=O)NCc3ccc(C)nc3)cc(C(=O)N3CC[C@@H](N)C3)c2)cc1` [Compound 101], the IC50 in experiment [1] (setting [3]) was 501 to 1000 nM; in experiment [2] (setting [4]) it was 100 to 500 nM.

As to `Cc1ccc(-c2cc(C(=O)NCc3ccc(C)nc3)cc(C(=O)N3CC[C@@H](O)C3)c2)nc1` [Compound 179], the IC50 in experiment [1] (setting [3]) and in experiment [2] (setting [4]) was under 100 nM each time.

For the molecule `Cc1ccc(-c2cc(C(=O)NCc3ccc(C)nc3)cc(S(=O)(=O)CC(C)C)c2)cc1` [Compound 183], the IC50 in experiment [1] (setting [3]) and in experiment [2] (setting [4]) was under 100 nM throughout.

`CCS(=O)(=O)c1cc(C(=O)N[C@H](C)c2cnc(C)nc2)cc(-c2ccc(C)cc2)c1` [Compound 210]: the IC50 in experiment [1] (setting [5]) and in experiment [2] (setting [6]) was under 100 nM each time.

For the molecule `Cc1ccc(-c2cc(Oc3nccs3)cc(C(=O)N[C@H](C)c3cnc(C)nc3)c2)c(C#N)c1` [Compound 254, (R)-2′-Cyano-4′-methyl-N-(1-(2-methylpyrimidin-5-yl)ethyl)-5-(thiazol-2-yloxy)biphenyl-3-carboxamide], the IC50 in experiment [1] (setting [5]) and in experiment [2] (setting [6]) was under 100 nM in each case.

Consider `Cc1ccc(-c2cc(C(=O)N[C@H](C)c3cnn(C)c3C)cc(C(=O)N3CCCC3)c2)cc1` [Compound 109], for which the values for the IC50 in experiment [1] (setting [3]) and in experiment [2] (setting [4]) were 501 to 1000 nM and 100 to 500 nM, respectively.

Take `Cc1ccc(-c2cc(C(=O)NCc3ccc(C)nc3)cc(S(=O)(=O)N3CCCC3)c2)cc1` [Compound 105]: the IC50 in experiment [1] (setting [3]) and in experiment [2] (setting [4]) was under 100 nM each time.

As to `Cc1ccc(-c2cc(C(=O)NCc3ccc(C)nc3)cc(C(=O)N3CC(O)C3)c2)c(C#N)c1` [Compound 63, 2′-Cyano-5-(3-hydroxyazetidine-1-carbonyl)-4′-methyl-N-((6-methylpyridin-3-yl)methyl)biphenyl-3-carboxamide], the IC50 in experiment [1] (setting [3]) and in experiment [2] (setting [4]) was under 100 nM throughout.

As for `Cc1ccc(-c2cc(C(=O)N[C@H](C)c3cnc(C)nc3)cc(C(=O)N(C)CC(C)C)c2)cc1` [Compound 14, (R)—N3-Isobutyl-N3,4′-dimethyl-N5-(1-(2-methylpyrimidin-5-yl)ethyl)biphenyl-3,5-dicarboxamide], the IC50 in experiment [1] (setting [3]) and in experiment [2] (setting [4]) was under 100 nM in each case.

For the molecule `Cc1ccc(-c2cc(Oc3nc4c(s3)CCCC4)cc(C(=O)N[C@H](C)c3ccc(C)nc3)c2)cc1` [Compound 393], the IC50 in experiment [1] (setting [5]) and in experiment [2] (setting [6]) was 100 to 500 nM each time.

On to `Cc1ccc(-c2cc(C(=O)NCc3ccc(C)[n+]([O-])c3)cc(C(=O)N3CCCC3)c2)cc1` [Compound 224, 2-Methyl-5-((4′-methyl-5-(pyrrolidine-1-carbonyl)biphenyl-3-ylcarboxamido)methyl)pyridine 1-oxide], for which the IC50 in experiment [1] (setting [5]) and in experiment [2] (setting [6]) was under 100 nM in each case.

`Cc1ccc(-c2cc(CN(C)C)cc(C(=O)N[C@H](C)c3ccc(C)nc3)c2)cc1` [Compound 340, (R)-5-((Dimethylamino)methyl)-4′-methyl-N-(1-(6-methylpyridin-3-yl)ethyl)biphenyl-3-carboxamide]: the IC50 in experiment [1] (setting [5]) is 100 to 500 nM; in experiment [2] (setting [6]) it was under 100 nM.

For `Cc1ccc(-c2cc(C(=O)N[C@H](C)c3cnc(C)nc3)cc(C(O)c3ccccn3)c2)c(C#N)c1` (some centres unmarked) [Compound 285], the IC50 in experiment [1] (setting [5]) and in experiment [2] (setting [6]) was under 100 nM in each case.

As for `Cc1ccc(-c2cc(C(=O)NCc3ccn4ccnc4c3)cc(S(C)(=O)=O)c2)nc1` [Compound 351], the IC50 in experiment [1] (setting [5]) is 100 to 500 nM; in experiment [2] (setting [6]), under 100 nM.

`Cc1ccc(-c2cc(Oc3nc(-c4ccccc4)cs3)cc(C(=O)N[C@H](C)c3ccc(C)nc3)c2)nc1` [Compound 375]: the IC50 in experiment [1] (setting [5]) and in experiment [2] (setting [6]) was 100 to 500 nM in each case.

`Cc1ccc(-c2cc(Oc3nc4ccccc4s3)cc(C(=O)N[C@H](C)c3ccc(C)nc3)c2)c(C#N)c1` [Compound 392]: the IC50 in experiment [1] (setting [5]) and in experiment [2] (setting [6]) was 100 to 500 nM in each case.

Turning to `Cc1ccc(-c2cc(OC3CNCC3O)cc(C(=O)N[C@H](C)c3ccc(C)nc3)c2)cc1` (some centres unmarked) [Compound 327], the IC50 in experiment [1] (setting [5]) was 100 to 500 nM; in experiment [2] (setting [6]), under 100 nM.

Regarding `Cc1ccc(-c2cc(OC(F)(F)F)cc(C(=O)NCc3ccc(C)nc3)c2)nc1` [Compound 220, 3-(5-Methylpyridin-2-yl)-N-((6-methylpyridin-3-yl)methyl)-5-(trifluoromethoxy)benzamide], the IC50 was over 1000 nM in experiment [1] (setting [5]) and 100 to 500 nM in experiment [2] (setting [6]).

For `Cc1ccc(-c2cc(C(=O)NCc3ccc(C(F)(F)F)nc3)cc(C(=O)N3CCCC3)c2)c(C#N)c1` [Compound 62, 2′-Cyano-4′-methyl-5-(pyrrolidine-1-carbonyl)-N-((6-(trifluoromethyl)pyridin-3-yl)methyl)biphenyl-3-carboxamide], the values for the IC50 in experiment [1] (setting [3]) and in experiment [2] (setting [4]) were 100 to 500 nM and under 100 nM, respectively.

Take `Cc1ccc(-c2cc(C(=O)N[C@H](C)c3ccc(C)nc3)cc(C(=O)N3CC[C@@H](O)C3)c2)nc1` [Compound 178]: the IC50 in experiment [1] (setting [3]) and in experiment [2] (setting [4]) was under 100 nM throughout.

For `Cc1ccc(-c2cc(C(=O)N[C@@H](C)c3cnc(C)nc3)cc(C(=O)N3CCCC3)c2)cc1` [Compound 93], the IC50 in experiment [1] (setting [3]) lay within 501 to 1000 nM; in experiment [2] (setting [4]), 100 to 500 nM.

`Cc1ccc(-c2cc(C(=O)NCc3cnc(C)nc3)cc(S(C)(=O)=O)c2)c(C#N)c1` [Compound 59]: the IC50 in experiment [1] (setting [3]) was 100 to 500 nM; in experiment [2] (setting [4]), under 100 nM.

In the case of `Cc1ccc(-c2cc(C(=O)N[C@H](C)c3ccc(C)nc3)cc(C(O)c3ccccn3)c2)c(C#N)c1` (some centres unmarked) [Compound 284], the IC50 in experiment [1] (setting [5]) and in experiment [2] (setting [6]) was under 100 nM each time.

On to `Cc1ccc(-c2cc(C(=O)NCc3ccc(Cl)c(-n4cnnc4)c3)cc(C(=O)N3CCCC3)c2)cc1` [Compound 102], for which the IC50 in experiment [1] (setting [3]) and in experiment [2] (setting [4]) was under 100 nM in each case.

On to `Cc1ccc(-c2cc(S(=O)(=O)N3CCCC3)cc(C(=O)NCc3ccc(C)nc3)c2C)cc1` [Compound 68], for which the IC50 in experiment [1] (setting [3]) was over 1000 nM; in experiment [2] (setting [4]), 100 to 500 nM.

`Cc1ccc(-c2cc(C(=O)NCc3ccc(C)nc3)cc(C(=O)N3CCNC(C)C3)c2)cc1` (centres unmarked) [Compound 126]: the IC50 in experiment [1] (setting [3]) is 100 to 500 nM; in experiment [2] (setting [4]), under 100 nM.

As to `Cc1ccc(-c2cc(C(=O)NCc3ccc(C)nc3)cc(C(O)CN3CC(C)OC(C)C3)c2)cc1` (centres unmarked) [Compound 391], the IC50 in experiment [1] (setting [5]) and in experiment [2] (setting [6]) was under 100 nM each time.

For the molecule `Cc1ccc(-c2cc(C(=O)NCc3ccc(C)nc3)cc(C(=O)N3CCCC3)c2)cc1` [Compound 60], the IC50 in experiment [1] (setting [3]) and in experiment [2] (setting [4]) was under 100 nM each time.

For the molecule `Cc1ccc(-c2cc(CN3CCN(C)CC3)cc(C(=O)NCc3ccc(C)nc3)c2)nc1` [Compound 244], the results for the IC50 in experiment [1] (setting [5]) and in experiment [2] (setting [6]) were 501 to 1000 nM and 100 to 500 nM, respectively.

In the case of `Cc1ccc(-c2cc(C(=O)NC(C)c3ccc(C)nc3)cc(C(=O)N3CCCC3)c2)cc1` (centres unmarked) [Compound 103], the IC50 in experiment [1] (setting [3]) and in experiment [2] (setting [4]) was under 100 nM each time.

For the molecule `COc1ncc([C@@H](C)NC(=O)c2cc(C(=O)N3CC(O)C3)cc(-c3ccc(C)cc3)c2)cn1` [Compound 84], the figures for the IC50 in experiment [1] (setting [3]) and in experiment [2] (setting [4]) were 100 to 500 nM and under 100 nM, respectively.

Take `Cc1ccc(-c2cc(C(=O)NC(C)c3ccc(Cl)c(S(C)(=O)=O)c3)cc(C(=O)N3CCCC3)c2)cc1` (centres unmarked) [Compound 45, N-(1-(4-Chloro-3-(methylsulfonyl)phenyl)ethyl)-4′-methyl-5-(pyrrolidine-1-carbonyl)biphenyl-3-carboxamide]: the IC50 is under 100 nM in experiment [1] (setting [3]) and 100 to 500 nM in experiment [2] (setting [4]).
